# Measurements taken from ChEMBL document CHEMBL1201862, “PubChem BioAssay data set” (2004).
#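 Grown in 96-well plates, cells were treated for 48 hours with each compound at five concentrations. Insufficient inhibition: endpoint recorded as highest concentration tested. Abbreviation: GI50, concentration required for 50% inhibition of growth.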 Activity calls are given as the source filed them. Rule as the data show it: active = GI50 up to about 1.1 µM and inactive = higher.
# What was measured:
# Assay in all cases: inhibition of tumour cell growth, NCI panel, 48 h
# [1] = tested on: ACHN
# [2] = tested on: SNB-75
# [3] = tested on: HCT-15
# [4] = tested on: HL-60
# [5] = tested on: A549
# [6] = tested on: SN12C
# [7] = tested on: SK-MEL-28
# [8] = tested on: OVCAR-3
# [9] = tested on: HCT-116
# [10] = tested on: RXF 393
# [11] = tested on: IGROV-1
# [12] = tested on: MDA-MB-435
# [13] = tested on: Malme-3M
# [14] = tested on: 786-0
# [15] = tested on: RPMI-8226
# [16] = tested on: MDA-N
# [17] = tested on: HCC 2998
# [18] = tested on: SF-268
# [19] = tested on: SW-620
# [20] = tested on: EKVX
# [21] = tested on: A498
# [22] = tested on: OVCAR-4
# [23] = tested on: SR
# [24] = tested on: NCI/ADR-RES
# [25] = tested on: NCI-H23
# [26] = tested on: SF-539
# [27] = tested on: SNB-19
# [28] = tested on: TK-10
# [29] = tested on: OVCAR-5
# [30] = tested on: UACC-257
# [31] = tested on: NCI-H460
# [32] = tested on: UACC-62
# [33] = tested on: OVCAR-8
# [34] = tested on: COLO 205
# [35] = tested on: SF-295
# [36] = tested on: BT-549
# [37] = tested on: HT-29
# [38] = tested on: UO-31
# [39] = tested on: NCI-H522
# [40] = tested on: SK-OV-3
# [41] = tested on: HOP-62
# [42] = tested on: SK-MEL-5
# [43] = tested on: CAKI-1
# [44] = tested on: MOLT-4
# [45] = tested on: M14
# [46] = tested on: DU-145
# [47] = tested on: LOX IMVI
# [48] = tested on: KM12
# [49] = tested on: MCF7
# [50] = tested on: HOP-92
# [51] = tested on: Hs-578T
# [52] = tested on: U-251
# [53] = tested on: SK-MEL-2
# [54] = tested on: MDA-MB-231
# [55] = tested on: PC-3
# [56] = tested on: NCI-H226
# [57] = tested on: CCRF-CEM
# [58] = tested on: K562
smiles,measurement,setting,value
CCOC(=O)/C(=C\NC#N)c1nc2ccccc2[nH]1,GI50,[1],30.2 µM (inactive)
same,GI50,[2],> 100 µM (inactive)
same,GI50,[3],91 µM
same,GI50,[4],45.5 µM (inactive)
same,GI50,[5],> 100 µM (inactive)
same,GI50,[6],> 100 µM (inactive)
same,GI50,[7],> 100 µM (inactive)
same,GI50,[8],> 100 µM (inactive)
same,GI50,[9],> 100 µM (inactive)
same,GI50,[10],> 100 µM (inactive)
same,GI50,[11],58.9 µM (inactive)
same,GI50,[12],> 100 µM (inactive)
same,GI50,[13],> 100 µM (inactive)
same,GI50,[14],> 100 µM (inactive)
same,GI50,[15],78.5 µM (inactive)
same,GI50,[16],> 100 µM (inactive)
same,GI50,[17],> 100 µM (inactive)
same,GI50,[18],72.9 µM (inactive)
same,GI50,[19],> 100 µM (inactive)
same,GI50,[20],> 100 µM (inactive)
same,GI50,[21],> 100 µM (inactive)
same,GI50,[22],> 100 µM (inactive)
same,GI50,[23],52.7 µM (inactive)
same,GI50,[24],> 100 µM (inactive)
same,GI50,[25],> 100 µM (inactive)
same,GI50,[26],> 100 µM (inactive)
same,GI50,[27],> 100 µM (inactive)
same,GI50,[28],85.5 µM (inactive)
same,GI50,[29],> 100 µM (inactive)
same,GI50,[30],> 100 µM (inactive)
same,GI50,[31],60.5 µM (inactive)
same,GI50,[32],85.1 µM (inactive)
same,GI50,[33],> 100 µM (inactive)
same,GI50,[34],> 100 µM (inactive)
same,GI50,[35],> 100 µM (inactive)
same,GI50,[36],> 100 µM (inactive)
same,GI50,[37],> 100 µM (inactive)
same,GI50,[38],1.28 µM (inactive)
same,GI50,[39],68.5 µM (inactive)
same,GI50,[40],> 100 µM (inactive)
same,GI50,[41],> 100 µM (inactive)
same,GI50,[42],65.2 µM (inactive)
same,GI50,[43],> 100 µM (inactive)
same,GI50,[44],5.75 µM (inactive)
same,GI50,[45],> 100 µM (inactive)
same,GI50,[46],> 100 µM (inactive)
same,GI50,[47],> 100 µM (inactive)
same,GI50,[48],> 100 µM (inactive)
same,GI50,[49],> 100 µM (inactive)
same,GI50,[50],> 100 µM (inactive)
[O-][N+]1=NC(c2ccccc2)=C1c1ccccc1,GI50,[1],> 50 µM (inactive)
same,GI50,[2],10.8 µM (inactive)
same,GI50,[3],> 50 µM
same,GI50,[4],11.4 µM (inactive)
same,GI50,[5],> 50 µM (inactive)
same,GI50,[51],> 50 µM (inactive)
same,GI50,[6],> 50 µM (inactive)
same,GI50,[7],> 50 µM (inactive)
same,GI50,[52],> 50 µM (inactive)
same,GI50,[8],> 50 µM (inactive)
same,GI50,[9],> 50 µM (inactive)
same,GI50,[10],> 50 µM (inactive)
same,GI50,[11],> 50 µM (inactive)
same,GI50,[12],> 50 µM (inactive)
same,GI50,[13],> 50 µM (inactive)
same,GI50,[14],> 50 µM (inactive)
same,GI50,[15],> 50 µM (inactive)
same,GI50,[16],> 50 µM (inactive)
same,GI50,[18],> 50 µM (inactive)
same,GI50,[19],> 50 µM (inactive)
same,GI50,[53],> 50 µM (inactive)
same,GI50,[20],> 50 µM (inactive)
same,GI50,[21],> 50 µM (inactive)
same,GI50,[22],> 50 µM (inactive)
same,GI50,[24],> 50 µM (inactive)
same,GI50,[25],> 50 µM (inactive)
same,GI50,[26],> 50 µM (inactive)
same,GI50,[27],> 50 µM (inactive)
same,GI50,[28],> 50 µM (inactive)
same,GI50,[29],> 50 µM (inactive)
same,GI50,[30],> 50 µM (inactive)
same,GI50,[54],> 50 µM (inactive)
same,GI50,[31],> 50 µM (inactive)
same,GI50,[32],> 50 µM (inactive)
same,GI50,[33],> 50 µM (inactive)
same,GI50,[55],> 50 µM (inactive)
same,GI50,[56],> 50 µM (inactive)
same,GI50,[34],> 50 µM (inactive)
same,GI50,[35],> 50 µM (inactive)
same,GI50,[57],> 50 µM (inactive)
same,GI50,[58],> 50 µM (inactive)
same,GI50,[37],> 50 µM (inactive)
same,GI50,[38],> 50 µM (inactive)
same,GI50,[39],> 50 µM (inactive)
same,GI50,[40],> 50 µM (inactive)
same,GI50,[41],> 50 µM (inactive)
same,GI50,[42],> 50 µM (inactive)
same,GI50,[43],> 50 µM (inactive)
same,GI50,[44],> 50 µM (inactive)
same,GI50,[45],> 50 µM (inactive)
same,GI50,[46],> 50 µM (inactive)
same,GI50,[47],> 50 µM (inactive)
same,GI50,[48],> 50 µM (inactive)
same,GI50,[49],> 50 µM (inactive)
same,GI50,[50],> 50 µM (inactive)
